One assay concerns Aβ42. In words: Aβ42 content secreted by HEK293APP/sw overexpression cells after compound treatment (ELISA of supernatant). The assay is classed as cell-based. The note with it: 24 h; for Aβ42 content: APP/293 (HEK293APP/sw) cells, test sample 400 μM, culture supernatant, adjusted by total protein concentration, blank 11.08; for content of Aβ42 compared with benfotiamine in Comparative Example 2: APP/293 cells, 400 μM, in words. Here is the method:
(§1) (1) A BCA Protein Concentration Kit was purchased from Beyotime Biotechnology, a detection kit for Aβ40 and Aβ42 was purchased from Wako Co., Ltd., and cell culture related reagents were purchased from Gibico Co., Ltd.
(§2) (2) HEK293APP/sw overexpression cell culture: cells were cultured in a 48-well plate in DMEM culture medium (containing 10% FBS, 100 μg/mL G418 (Geneticin) and diabody), 4 mM stock solution of a test sample (prepared by dissolving the test sample in DMEM culture medium) was diluted to 400 μM in DMEM culture medium at a cell density of 70%, to each well was added 500 μL of the test sample, and the cells were cultured for 24 h.
(§3) (3) To the culture solution supernatant was added a BCA reagent, after incubating for 30 min at room temperature, absorbance of each well was measured at OD […] with a microplate reader, and a total protein concentration was calculated according to a protein standard curve; concentrations of Aβ40 and Aβ42 were measured with supernatant: the supernatant was added into a coated 96-well plate, followed by incubating overnight at 4° C., the reagent was removed and washed, HRP (horseradish peroxidase) labeled antibody was added, followed by incubating for 2 h at 4° C., the reagent was removed and washed, a TMB color developing solution was added, followed by incubating for 30 min at room temperature, a stop solution was added to stop reaction, absorbance of each well was measured at OD […] with a microplate reader, concentrations of Aβ40 and Aβ42 were calculated according to standard curves of A40 and Aβ42 respectively, and finally the concentrations of Aβ40 and Aβ42 were adjusted by using a total protein concentration to obtain a final concentration.
A general note: An ELISA detects its analyte on a solid surface through an enzyme-linked reagent.

For the next assay, the system named is Aβ40. The experiment in a line: Aβ40 content secreted by HEK293APP/sw overexpression cells after compound treatment (ELISA of supernatant). In kind it is cell-based. Particulars: 24 h; for Aβ40 content: APP/293 (HEK293APP/sw) cells, test sample 400 μM, culture supernatant, adjusted by total protein concentration, blank 127.81; for content of Aβ40 compared with benfotiamine in Comparative Example 2: APP/293 cells, 400 μM, in words. How it is done:
as §1, §2, §3

Consider `C/C(=C(\CCOP(=O)(O)O)SC(=O)c1ccccc1)N(C=O)Cc1cnc(C)nc1N` [Comparative Example 2, benfotiamine, reference compound], for which the Aβ42 content in the assay on Aβ42 worked out at 5.04 pmol/L. Moreover, the Aβ40 content in the assay on Aβ40 came to 53.77 pmol/L.

With `CCCC(=O)S/C(CCOP(=O)(O)O)=C(/C)N(C=O)Cc1cnc(C)nc1N` [Example 1, (Z)—S-(2-(N-((4-amino-2-methylpyrimidin-5-yl)methyl) formamido)-5-(phosphonooxy)pent-2-en-3-yl) butanethioate], the Aβ42 content with Aβ42 was 8.59 pmol/L. The molecule further displayed an Aβ40 content with Aβ40 of 45.47 pmol/L.

With `CCCCCCCCCC(=O)S/C(CCOP(=O)(O)O)=C(/C)N(C=O)Cc1cnc(C)nc1N` [Example 2, (Z)—S-(2-(N-((4-amino-2-methylpyrimidin-5-yl)methyl) formamido)-5-(phosphonooxy)pent-2-en-3-yl) decanethioate], in the assay on Aβ42, the Aβ42 content turned out to be 5.37 pmol/L. For the same molecule, the Aβ40 content in the assay on Aβ40 is 75.15 pmol/L.

In turn, `CCCCCCCCCCCC(=O)S/C(CCOP(=O)(O)O)=C(/C)N(C=O)Cc1cnc(C)nc1N` [Example 3, (Z)—S-(2-(N-((4-amino-2-methylpyrimidin-5-yl)methyl) formamido)-5-(phosphonooxy)pent-2-en-3-yl) dodecanethioate] yielded an Aβ42 content with Aβ42 of 4.93 pmol/L. The Aβ40 content in the assay with Aβ40 is listed as 128.90 pmol/L.

`C/C=C(\C)C(=O)S/C(CCOP(=O)(O)O)=C(/C)N(C=O)Cc1cnc(C)nc1N` [Example 4, (E)-S—((Z)-2-(N-((4-amino-2-methylpyrimidin-5-yl)methyl) formamido)-5-(phosphonooxy)pent-2-en-3-yl) 2-methylbut-2-enethioate] showed an Aβ42 content with Aβ42 of 5.77 pmol/L. Also, the Aβ40 content with Aβ40 worked out at 71.80 pmol/L.

With `CCC(C)C(=O)S/C(CCOP(=O)(O)O)=C(/C)N(C=O)Cc1cnc(C)nc1N` (stereo not drawn) [Example 5, (Z)—S-(2-(N-((4-amino-2-methylpyrimidin-5-yl)methyl) formamido)-5-(phosphonooxy)pent-2-en-3-yl) 2-methylbutanethioate], in the assay on Aβ42, the Aβ42 content was determined as 2.09 pmol/L and the “content of Aβ42 compared with benfotiamine in Comparative Example 2” value is “significantly reduced”. In the assay on Aβ40, the Aβ40 content was 37.65 pmol/L and the “content of Aβ40 compared with benfotiamine in Comparative Example 2” value was “significantly reduced”.

`C/C(=C(\CCOP(=O)(O)O)SC(=O)C(C)C)N(C=O)Cc1cnc(C)nc1N` [Example 6, (Z)—S-(2-(N-((4-amino-2-methylpyrimidin-5-yl)methyl) formamido)-5-(phosphonooxy)pent-2-en-3-yl) 2-methylpropanethioate]: in the assay with Aβ42, the Aβ42 content is listed as 2.41 pmol/L and the “content of Aβ42 compared with benfotiamine in Comparative Example 2” value was “significantly reduced”. In the assay on Aβ40, the Aβ40 content came to 44.38 pmol/L and the “content of Aβ40 compared with benfotiamine in Comparative Example 2” value was “significantly reduced”.

Take `CCCCCCCC(=O)S/C(CCOP(=O)(O)O)=C(/C)N(C=O)Cc1cnc(C)nc1N` [Example 7, (Z)—S-(2-(N-((4-amino-2-methylpyrimidin-5-yl)methyl) formamido)-5-(phosphonooxy)pent-2-en-3-yl) octanethioate]: in the assay with Aβ42, the Aβ42 content turned out to be 6.09 pmol/L. The same molecule had an Aβ40 content with Aβ40 of 106.81 pmol/L.

`C/C(=C(\CCOP(=O)(O)O)SC(=O)CCc1ccccc1)N(C=O)Cc1cnc(C)nc1N` [Example 8, (Z)—S-(2-(N-((4-amino-2-methylpyrimidin-5-yl)methyl) formamido)-5-(phosphonooxy)pent-2-en-3-yl) 3-phenylpropanethioate]: the Aβ42 content in the assay with Aβ42 was determined as 6.38 pmol/L. Also, the Aβ40 content with Aβ40 is 57.86 pmol/L.

Take `C=CCCCC(=O)S/C(CCOP(=O)(O)O)=C(/C)N(C=O)Cc1cnc(C)nc1N` [Example 9, (Z)—S-(2-(N-((4-amino-2-methylpyrimidin-5-yl)methyl) formamido)-5-(phosphonooxy)pent-2-en-3-yl) hex-5-enethioate]: the Aβ42 content in the assay on Aβ42 came out at 5.70 pmol/L. Further, in the assay with Aβ40, the Aβ40 content was 80.40 pmol/L.

In the assay with Aβ42, `C/C(=C(\CCOP(=O)(O)O)SC(=O)Cc1c(F)cccc1F)N(C=O)Cc1cnc(C)nc1N` [Example 10, (Z)—S-(2-(N-((4-amino-2-methylpyrimidin-5-yl)methyl) formamido)-5-(phosphonooxy)pent-2-en-3-yl) 2-(2,6-difluorophenyl) ethanethioate] had an Aβ42 content of 10.62 pmol/L. The molecule further showed an Aβ40 content in the assay with Aβ40 of 71.11 pmol/L.

In the case of `C=CC(C)(C)C(=O)S/C(CCOP(=O)(O)O)=C(/C)N(C=O)Cc1cnc(C)nc1N` [Example 11, (Z)—S-(2-(N-((4-amino-2-methylpyrimidin-5-yl)methyl) formamido)-5-(phosphonooxy)pent-2-en-3-yl) 2,2-dimethylbut-3-enethioate], in the assay with Aβ42, the Aβ42 content is recorded as 3.22 pmol/L and the “content of Aβ42 compared with benfotiamine in Comparative Example 2” value is on record as “reduced”. Moreover, in the assay with Aβ40, the Aβ40 content came out at 54.75 pmol/L and the “content of Aβ40 compared with benfotiamine in Comparative Example 2” value was “substantially the same”.

For the molecule `CCC/C=C/C(=O)S/C(CCOP(=O)(O)O)=C(/C)N(C=O)Cc1cnc(C)nc1N` [Example 12, (E)-S—((Z)-2-(N-((4-amino-2-methylpyrimidin-5-yl)methyl) formamido)-5-(phosphonooxy)pent-2-en-3-yl) hex-2-enethioate], in the assay on Aβ42, the Aβ42 content is recorded as 0.34 pmol/L and the “content of Aβ42 compared with benfotiamine in Comparative Example 2” value is reported as “significantly reduced”. Moreover, in the assay with Aβ40, the Aβ40 content was determined as 32.87 pmol/L and the “content of Aβ40 compared with benfotiamine in Comparative Example 2” value is listed as “significantly reduced”.

In the assay with Aβ42, `CCCCC(CC)C(=O)S/C(CCOP(=O)(O)O)=C(/C)N(C=O)Cc1cnc(C)nc1N` (stereo not drawn) [Example 13, (Z)—S-(2-(N-((4-amino-2-methylpyrimidin-5-yl)methyl) formamido)-5-(phosphonooxy)pent-2-en-3-yl) 2-ethylhexanethioate] displayed an Aβ42 content of 24.36 pmol/L. Moreover, the Aβ40 content in the assay on Aβ40 came to 56.28 pmol/L.

As for `CCCC(C)C(=O)S/C(CCOP(=O)(O)O)=C(/C)N(C=O)Cc1cnc(C)nc1N` (stereo not drawn) [Example 14, (Z)—S-(2-(N-((4-amino-2-methylpyrimidin-5-yl)methyl) formamido)-5-(phosphonooxy)pent-2-en-3-yl) 2-methylpentanethioate], the Aβ42 content in the assay with Aβ42 came out at 6.79 pmol/L. The molecule also displayed an Aβ40 content in the assay on Aβ40 of 60.34 pmol/L.

Molecule `CCCCC(C)C(=O)S/C(CCOP(=O)(O)O)=C(/C)N(C=O)Cc1cnc(C)nc1N` (stereo not drawn) [Example 15, (Z)—S-(2-(N-((4-amino-2-methylpyrimidin-5-yl)methyl) formamido)-5-(phosphonooxy)pent-2-en-3-yl) 2-methylhexanethioate] had an Aβ42 content in the assay with Aβ42 of 9.59 pmol/L. This molecule displayed an Aβ40 content in the assay on Aβ40 of 40.39 pmol/L.

`CCC(C)(C)C(=O)S/C(CCOP(=O)(O)O)=C(/C)N(C=O)Cc1cnc(C)nc1N` [Example 16, (Z)—S-(2-(N-((4-amino-2-methylpyrimidin-5-yl)methyl) formamido)-5-(phosphonooxy)pent-2-en-3-yl) 2,2-dimethylbutanethioate]: in the assay with Aβ42, the Aβ42 content turned out to be 33.70 pmol/L. In the assay with Aβ40, this molecule registered an Aβ40 content of 85.96 pmol/L.

Take `CCCCC(C)(C)C(=O)S/C(CCOP(=O)(O)O)=C(/C)N(C=O)Cc1cnc(C)nc1N` [Example 17, (Z)—S-(2-(N-((4-amino-2-methylpyrimidin-5-yl)methyl) formamido)-5-(phosphonooxy)pent-2-en-3-yl) 2,2-dimethylhexanethioate]: in the assay on Aβ42, the Aβ42 content is on record as 6.24 pmol/L. The molecule also showed an Aβ40 content with Aβ40 of 77.22 pmol/L.

Values taken from US11591354B2, “Thiamine compound, preparation method and pharmaceutical composition thereof” (SHANGHAI RAISING PHARMACEUTICAL CO., LTD., priority 2018, dated 2023).
